Tests used:
Assay in all cases: KiNativ chemical proteomics profiling in HeLa and PC3 cell lysates
Format in all cases: binding
[1] = target: T1, selected panels of kinases in HeLa and PC3 cell lysates (Homo sapiens, UniProt P30291); settings: 10 uM; Wee1; peptide […]k[…]; proteome HEL; labeling site Lys2
T1 construct: endogenous in cells; host or cells: HeLa and PC3 cell lysates

[2] = target: T2, selected panels of kinases in HeLa and PC3 cell lysates (Homo sapiens, UniProt Q96BR1); settings: 10 uM; SGK3; peptide FYAVkVLQK; proteome HEL; labeling site Lys1
T2 construct: endogenous in cells; host or cells: HeLa and PC3 cell lysates

[3] = target: T3, selected panels of kinases in HeLa and PC3 cell lysates (Homo sapiens, UniProt Q9UBF8); settings: 10 uM, PI4KB, peptide […]kDK, labeling site ATP
T3 construct: endogenous in cells; host or cells: HeLa and PC3 cell lysates

[4] = target: T4, selected panels of kinases in HeLa and PC3 cell lysates (Homo sapiens, UniProt P52564); settings: 10 uM
T4 construct: endogenous in cells; host or cells: HeLa and PC3 cell lysates
T4 sequence (P52564 1-334): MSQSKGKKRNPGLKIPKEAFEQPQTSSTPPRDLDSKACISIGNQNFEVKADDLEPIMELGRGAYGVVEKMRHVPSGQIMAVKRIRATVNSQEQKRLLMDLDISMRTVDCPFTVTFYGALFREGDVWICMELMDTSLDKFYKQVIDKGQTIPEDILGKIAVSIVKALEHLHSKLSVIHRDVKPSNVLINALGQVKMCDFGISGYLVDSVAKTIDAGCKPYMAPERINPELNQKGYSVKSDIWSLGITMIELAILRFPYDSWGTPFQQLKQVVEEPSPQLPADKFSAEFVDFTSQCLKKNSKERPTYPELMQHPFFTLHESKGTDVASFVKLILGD

[5] = target: T5, selected panels of kinases in HeLa and PC3 cell lysates (Homo sapiens, UniProt Q16644); settings: 10 uM; proteome HEL; peptide […]k[…]; labeling site ATP Loop
T5 construct: endogenous in cells; host or cells: HeLa and PC3 cell lysates

[6] = target: T6, selected panels of kinases in HeLa and PC3 cell lysates (Homo sapiens, UniProt P19525); settings: 10 uM, PKR, peptide DLk[…], labeling site Lys2
T6 construct: endogenous in cells; host or cells: HeLa and PC3 cell lysates

[7] = target: T7, selected panels of kinases in HeLa and PC3 cell lysates (Homo sapiens, UniProt Q9Y572); settings: 10 uM; RIPK3; peptide DLk[…]; proteome HEL; labeling site Lys2
T7 construct: endogenous in cells; host or cells: HeLa and PC3 cell lysates

[8] = target: T8, selected panels of kinases in HeLa and PC3 cell lysates (Homo sapiens, UniProt O14757); settings: 10 uM; proteome HEL; peptide DIkPENLLLDER; labeling site Lys2
T8 construct: endogenous in cells; host or cells: HeLa and PC3 cell lysates

[9] = target: T9, selected panels of kinases in HeLa and PC3 cell lysates (Homo sapiens, UniProt O00418); settings: 10 uM, peptide YIkYNSNSGFVR, labeling site Protein Kinase Domain
T9 construct: endogenous in cells; host or cells: HeLa and PC3 cell lysates

[10] = target: T10, selected panels of kinases in HeLa and PC3 cell lysates (Homo sapiens, UniProt P23443); settings: 10 uM, peptide DLk[…], labeling site Lys2; for % Inhibition p70S6K: proteome PC3; for % Inhibiton, p70S6K: proteome HEL
T10 construct: endogenous in cells; host or cells: HeLa and PC3 cell lysates

[11] = target: T11, selected panels of kinases in HeLa and PC3 cell lysates (Homo sapiens, UniProt Q9Y616); settings: 10 uM; proteome HEL; peptide […]k[…]; labeling site Protein Kinase Domain
T11 construct: endogenous in cells; host or cells: HeLa and PC3 cell lysates

[12] = target: T12, selected panels of kinases in HeLa and PC3 cell lysates (Homo sapiens, UniProt Q96SB4); settings: 10 uM; SRPK1; peptide IIHTDIk[…]; proteome PC3; labeling site Lys2
T12 construct: endogenous in cells; host or cells: HeLa and PC3 cell lysates

[13] = target: T13, selected panels of kinases in HeLa and PC3 cell lysates (Homo sapiens, UniProt Q9UBS0); settings: 10 uM; p70S6Kb; peptide DLk[…]; proteome HEL; labeling site Lys2
T13 construct: endogenous in cells; host or cells: HeLa and PC3 cell lysates

[14] = target: T14, selected panels of kinases in HeLa and PC3 cell lysates (Homo sapiens, UniProt P43405); settings: 10 uM; SYK; peptide ISDFGLSkALR; proteome HEL; labeling site Activation Loop
T14 construct: endogenous in cells; host or cells: HeLa and PC3 cell lysates

[15] = target: T15, selected panels of kinases in HeLa and PC3 cell lysates (Homo sapiens, UniProt P21709); settings: 10 uM; proteome PC3; peptide […]kIPIR; labeling site Activation Loop
T15 construct: endogenous in cells; host or cells: HeLa and PC3 cell lysates

[16] = proteome HEL, peptide DVk[…], labeling site Lys2
[17] = proteome PC3, peptide DVk[…], labeling site Lys2
[18] = proteome PC3, peptide […]kR, labeling site Lys1

T3 sequence (Q9UBF8 whole entry): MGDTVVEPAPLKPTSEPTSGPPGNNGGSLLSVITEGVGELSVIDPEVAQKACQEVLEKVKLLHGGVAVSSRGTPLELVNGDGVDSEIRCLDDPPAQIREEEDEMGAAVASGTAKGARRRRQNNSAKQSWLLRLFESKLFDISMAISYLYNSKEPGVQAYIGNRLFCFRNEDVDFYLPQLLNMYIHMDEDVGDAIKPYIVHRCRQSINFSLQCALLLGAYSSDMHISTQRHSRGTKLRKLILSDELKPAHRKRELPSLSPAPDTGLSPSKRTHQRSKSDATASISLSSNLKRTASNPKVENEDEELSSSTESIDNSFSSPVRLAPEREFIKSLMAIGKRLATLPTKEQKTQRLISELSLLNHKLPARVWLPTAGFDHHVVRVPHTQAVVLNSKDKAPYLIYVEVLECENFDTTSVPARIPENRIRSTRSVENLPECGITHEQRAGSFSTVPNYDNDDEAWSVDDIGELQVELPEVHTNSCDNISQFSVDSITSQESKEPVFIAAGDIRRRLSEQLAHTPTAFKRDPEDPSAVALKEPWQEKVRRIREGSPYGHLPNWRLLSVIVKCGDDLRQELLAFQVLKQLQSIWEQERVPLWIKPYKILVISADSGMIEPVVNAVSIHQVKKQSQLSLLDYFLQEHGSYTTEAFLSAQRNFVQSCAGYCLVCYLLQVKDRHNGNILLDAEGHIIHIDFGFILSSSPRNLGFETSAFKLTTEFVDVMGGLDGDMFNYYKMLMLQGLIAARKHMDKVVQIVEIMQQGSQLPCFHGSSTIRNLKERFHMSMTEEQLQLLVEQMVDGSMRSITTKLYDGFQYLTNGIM
T10 sequence (P23443 whole entry): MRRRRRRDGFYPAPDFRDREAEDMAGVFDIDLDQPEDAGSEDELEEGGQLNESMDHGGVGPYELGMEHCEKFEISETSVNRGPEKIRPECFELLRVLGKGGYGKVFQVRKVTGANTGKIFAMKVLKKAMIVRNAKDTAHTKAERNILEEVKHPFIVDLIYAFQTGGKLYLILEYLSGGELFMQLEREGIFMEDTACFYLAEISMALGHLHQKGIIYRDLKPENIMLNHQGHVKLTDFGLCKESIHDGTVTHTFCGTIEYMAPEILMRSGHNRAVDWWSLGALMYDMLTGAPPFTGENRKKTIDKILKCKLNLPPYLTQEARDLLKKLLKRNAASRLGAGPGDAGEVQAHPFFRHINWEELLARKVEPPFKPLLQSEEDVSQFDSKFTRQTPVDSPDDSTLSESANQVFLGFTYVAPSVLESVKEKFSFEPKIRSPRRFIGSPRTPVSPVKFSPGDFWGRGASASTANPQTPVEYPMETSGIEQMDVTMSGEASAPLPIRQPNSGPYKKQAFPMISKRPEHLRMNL
T6 sequence (P19525 whole entry): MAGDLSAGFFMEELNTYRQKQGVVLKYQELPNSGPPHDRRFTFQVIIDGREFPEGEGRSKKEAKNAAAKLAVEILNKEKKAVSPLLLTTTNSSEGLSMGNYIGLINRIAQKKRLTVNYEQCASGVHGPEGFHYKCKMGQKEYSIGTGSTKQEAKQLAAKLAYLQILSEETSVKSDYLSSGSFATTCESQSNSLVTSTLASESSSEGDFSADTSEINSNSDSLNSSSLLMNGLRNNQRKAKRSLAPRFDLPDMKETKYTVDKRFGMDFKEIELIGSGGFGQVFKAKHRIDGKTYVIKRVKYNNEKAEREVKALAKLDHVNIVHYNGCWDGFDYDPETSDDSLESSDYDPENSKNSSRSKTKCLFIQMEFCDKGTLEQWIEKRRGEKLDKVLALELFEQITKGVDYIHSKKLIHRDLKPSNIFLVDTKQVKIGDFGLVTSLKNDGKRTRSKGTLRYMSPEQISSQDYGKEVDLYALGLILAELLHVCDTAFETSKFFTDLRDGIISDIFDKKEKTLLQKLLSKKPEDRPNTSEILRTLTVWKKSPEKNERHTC
T9 sequence (O00418 whole entry, the tested form may be a part): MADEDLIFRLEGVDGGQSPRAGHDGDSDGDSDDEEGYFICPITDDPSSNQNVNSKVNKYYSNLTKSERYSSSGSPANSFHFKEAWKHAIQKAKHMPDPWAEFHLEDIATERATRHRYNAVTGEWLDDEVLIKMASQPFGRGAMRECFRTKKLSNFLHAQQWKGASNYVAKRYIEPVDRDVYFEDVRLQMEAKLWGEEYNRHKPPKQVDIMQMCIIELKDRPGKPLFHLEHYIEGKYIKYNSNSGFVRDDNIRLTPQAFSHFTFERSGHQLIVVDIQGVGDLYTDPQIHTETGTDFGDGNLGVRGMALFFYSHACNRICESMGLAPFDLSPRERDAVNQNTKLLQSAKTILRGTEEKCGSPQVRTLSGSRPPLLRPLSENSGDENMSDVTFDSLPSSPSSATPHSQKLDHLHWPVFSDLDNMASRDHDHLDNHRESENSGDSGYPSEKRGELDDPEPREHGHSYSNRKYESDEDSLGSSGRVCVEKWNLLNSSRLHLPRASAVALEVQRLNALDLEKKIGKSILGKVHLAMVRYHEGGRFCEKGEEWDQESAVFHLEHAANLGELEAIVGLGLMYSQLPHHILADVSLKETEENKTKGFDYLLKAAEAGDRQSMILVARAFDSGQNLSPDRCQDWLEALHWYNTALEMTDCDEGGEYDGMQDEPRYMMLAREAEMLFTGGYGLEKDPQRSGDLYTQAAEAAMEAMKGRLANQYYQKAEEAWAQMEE
T5 sequence (Q16644 whole entry): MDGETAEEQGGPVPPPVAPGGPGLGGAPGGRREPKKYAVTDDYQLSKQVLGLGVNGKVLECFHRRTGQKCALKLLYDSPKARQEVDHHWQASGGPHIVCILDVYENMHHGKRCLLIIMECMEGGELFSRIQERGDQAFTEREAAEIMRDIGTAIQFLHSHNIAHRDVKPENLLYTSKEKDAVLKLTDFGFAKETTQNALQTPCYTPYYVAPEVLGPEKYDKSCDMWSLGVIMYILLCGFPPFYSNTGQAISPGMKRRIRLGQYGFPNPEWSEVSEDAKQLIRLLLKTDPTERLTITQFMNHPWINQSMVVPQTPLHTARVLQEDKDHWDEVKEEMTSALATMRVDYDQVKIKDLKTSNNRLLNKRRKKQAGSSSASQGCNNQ
T7 sequence (Q9Y572 whole entry): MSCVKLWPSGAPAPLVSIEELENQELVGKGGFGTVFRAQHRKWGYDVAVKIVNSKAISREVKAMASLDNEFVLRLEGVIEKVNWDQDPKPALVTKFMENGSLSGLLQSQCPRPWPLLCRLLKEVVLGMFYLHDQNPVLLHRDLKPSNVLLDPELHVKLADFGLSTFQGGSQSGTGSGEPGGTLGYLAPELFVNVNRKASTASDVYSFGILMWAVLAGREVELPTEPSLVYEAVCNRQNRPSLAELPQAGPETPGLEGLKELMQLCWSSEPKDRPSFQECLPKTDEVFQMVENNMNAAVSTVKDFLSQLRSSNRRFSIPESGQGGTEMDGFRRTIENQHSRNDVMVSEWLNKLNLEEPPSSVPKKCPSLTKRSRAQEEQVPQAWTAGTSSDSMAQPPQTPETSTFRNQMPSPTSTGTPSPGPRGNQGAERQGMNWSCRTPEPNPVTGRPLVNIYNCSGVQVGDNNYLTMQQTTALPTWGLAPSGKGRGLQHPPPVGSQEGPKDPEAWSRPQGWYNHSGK
T12 sequence (Q96SB4 whole entry): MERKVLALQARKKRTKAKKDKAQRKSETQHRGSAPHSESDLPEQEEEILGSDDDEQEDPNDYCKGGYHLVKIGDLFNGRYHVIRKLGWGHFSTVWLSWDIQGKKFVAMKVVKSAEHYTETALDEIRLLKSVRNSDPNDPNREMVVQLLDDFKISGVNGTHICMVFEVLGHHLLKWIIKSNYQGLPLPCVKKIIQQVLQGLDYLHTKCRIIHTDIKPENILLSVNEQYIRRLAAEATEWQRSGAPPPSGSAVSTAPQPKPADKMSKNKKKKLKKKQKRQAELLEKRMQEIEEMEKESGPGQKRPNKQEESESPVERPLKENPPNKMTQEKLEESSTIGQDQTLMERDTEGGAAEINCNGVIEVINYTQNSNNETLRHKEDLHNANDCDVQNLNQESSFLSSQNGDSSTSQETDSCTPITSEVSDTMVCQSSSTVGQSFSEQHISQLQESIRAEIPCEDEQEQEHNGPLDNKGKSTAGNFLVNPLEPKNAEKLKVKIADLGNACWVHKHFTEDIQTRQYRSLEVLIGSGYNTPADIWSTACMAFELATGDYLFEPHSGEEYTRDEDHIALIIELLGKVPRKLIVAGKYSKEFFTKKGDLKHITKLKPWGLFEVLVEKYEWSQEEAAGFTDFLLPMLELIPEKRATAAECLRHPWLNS
T11 sequence (Q9Y616 whole entry, the tested form may be a part): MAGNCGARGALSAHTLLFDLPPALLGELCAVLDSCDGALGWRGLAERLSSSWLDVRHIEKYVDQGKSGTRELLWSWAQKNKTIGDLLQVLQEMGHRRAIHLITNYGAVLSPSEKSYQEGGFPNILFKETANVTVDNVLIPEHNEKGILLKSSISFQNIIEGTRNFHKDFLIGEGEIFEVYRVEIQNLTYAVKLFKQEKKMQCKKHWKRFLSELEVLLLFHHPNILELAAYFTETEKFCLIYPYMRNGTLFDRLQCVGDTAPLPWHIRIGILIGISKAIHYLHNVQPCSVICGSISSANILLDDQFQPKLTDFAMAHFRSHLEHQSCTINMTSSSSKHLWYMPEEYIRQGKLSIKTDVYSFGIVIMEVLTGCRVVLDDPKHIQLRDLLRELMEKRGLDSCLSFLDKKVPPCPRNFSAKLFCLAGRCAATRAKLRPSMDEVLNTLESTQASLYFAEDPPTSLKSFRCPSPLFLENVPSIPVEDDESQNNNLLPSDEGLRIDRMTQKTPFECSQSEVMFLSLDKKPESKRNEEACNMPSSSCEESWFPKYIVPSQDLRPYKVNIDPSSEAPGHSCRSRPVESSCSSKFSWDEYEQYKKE

SMILES	% Inhibition Wee1 [1]	% Inhibition SGK3 [2]	% Inhibition PI4KB ([3]; proteome HEL)	% Inhibition PI4KB ([3]; proteome PC3)	% Inhibiton, MAP2K6 [4, 16]	% Inhibiton, MAP2K6 [4, 17]	% Inhibiton, MAP2K6 [4, 18]	% Inhibiton, MAPKAPK3 [5]	% Inhibition PKR ([6]; proteome HEL)	% Inhibition PKR ([6]; proteome PC3)	% Inhibition RIPK3 [7]	% Inhibiton, CHK1 [8]	% Inhibiton, eEF2K ([9]; proteome HEL)	% Inhibiton, eEF2K ([9]; proteome PC3)	% Inhibition p70S6K [10]	% Inhibiton, p70S6K [10]	% Inhibiton, IRAK3 [11]	% Inhibition SRPK1 [12]	% Inhibition p70S6Kb [13]	% Inhibition SYK [14]	further results
CCOc1cc(C(=O)N2CCC(N3CCN(C)CC3)CC2)ccc1Nc1ncc2c(n1)N(C1CCCC1)c1ccccc1C(=O)N2C [Compound 26]	2.9%	25.5%	-1.9%	3.6%	-4.3%	-9.9%	-2.3%	20.8%	-0.3%	-3.3%	-2.4%	13.8%	1.2%	1.9%	10%	-24.4%	37%	-25%	-21.4%	-0.8%	% Inhibiton, EphA1 [15]: -0.1%
COc1cc(C(=O)N2CCC(N3CCN(C)CC3)CC2)ccc1Nc1ncc2c(n1)N(C1CCCC1)c1ccccc1C(=O)N2C [Compound 25, 11-cyclopentyl-2-((2-methoxy-4-(4-(4-methylpiperazin-1-yl)piperidine-1-carbonyl)phenyl)amino)-5-methyl-5H-benzo[e]pyrimido[5,4-b][1,4]diazepin-6(11H)-one]	11.1%	8.2%	-21.6%	-6.1%	14.2%	-3.9%	12.8%	1.8%	6.1%	-3.4%	-1.3%	-12.3%	8.7%	-9.1%	3.9%	16.9%	40.5%	-29.3%	8.4%	5.7%	% Inhibiton, EphA1 [15]: -1.8%

Source: PMC3914206
